Test results taken from patent US8461083B2, “Herbicidal compounds” (Syngenta Limited, priority 2008, dated 2013).

Assays:
Format in all cases: in vivo
[1] = system: Amaranthus retoflexus (AMARE); experiment: Pre-emergence herbicidal glasshouse test; details: pre-emergence (sprayed after one day cultivation), evaluated after 13 days, 100=total damage to plant, 0=no damage to plant; for pest or weed control at 1000 g/ha: Amaranthus retroflexus, 312 h, read-out: PRE Application AMARE, damage to plant; for PRE Application AMARE, damage to plant: 1000 g/ha
Outline: (§1)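 Rates of 1000 g/ha are applied as an acetone/water (50:50) spray with 0.5% Tween 20 to soil-sown pots, pre-emergence at day 1 or post-emergence at day 8. Percent damage is assessed after 13 days.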

[2] = system: Echinochloa crus-galli (ECHCG); experiment: Pre-emergence herbicidal glasshouse test; details: pre-emergence (sprayed after one day cultivation), evaluated after 13 days, 100=total damage to plant, 0=no damage to plant; for pest or weed control at 1000 g/ha: Echinochloa crus-galli, 312 h, read-out: PRE Application ECHCG, damage to plant; for PRE Application ECHCG, damage to plant: 1000 g/ha
Outline: (§2)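 Seeds were sown in standard soil in pots and sprayed 1 day after sowing (pre-emergence) or after 8 days' cultivation (post-emergence). Compounds were applied at 1000 g/ha in acetone/water (50:50) with 0.5% Tween 20. Plants were kept at 24/16 °C day/night, 14 h light, 65% humidity, and damage was scored after 13 days (0 = none, 100 = total).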

[3] = system: Alopecurus myosuroides (ALOMY); experiment: Pre-emergence herbicidal glasshouse test; details: pre-emergence (sprayed after one day cultivation), evaluated after 13 days, 100=total damage to plant, 0=no damage to plant; for pest or weed control at 1000 g/ha: Alopecurus myosuroides, 312 h, read-out: PRE Application ALOMY, damage to plant; for PRE Application ALOMY, damage to plant: 1000 g/ha
Outline: as §1

Setaria faberi (SETFA) [4] = experiment: Pre-emergence herbicidal glasshouse test; details: pre-emergence (sprayed after one day cultivation), evaluated after 13 days, 100=total damage to plant, 0=no damage to plant; for pest or weed control at 1000 g/ha: Setaria faberi, 312 h, read-out: PRE Application SETFA, damage to plant; for PRE Application SETFA, damage to plant: 1000 g/ha
Outline: as §1

Solanum nigrum (SOLNI) [5] = experiment: Pre-emergence herbicidal glasshouse test; details: pre-emergence (sprayed after one day cultivation), evaluated after 13 days, 100=total damage to plant, 0=no damage to plant; for pest or weed control at 1000 g/ha: Solanum nigrum, 312 h, read-out: PRE Application SOLNI, damage to plant; for PRE Application SOLNI, damage to plant: 1000 g/ha
Outline: as §1

[6] = system: Amaranthus retoflexus (AMARE); experiment: Post-emergence herbicidal glasshouse test; details: post-emergence (sprayed after 8 days cultivation), evaluated after 13 days, 100=total damage to plant, 0=no damage to plant; for pest or weed control at 1000 g/ha: Amaranthus retroflexus, 312 h, read-out: POST Application AMARE, damage to plant; for POST Application AMARE, damage to plant: 1000 g/ha
Outline: as §1

[7] = system: Echinochloa crus-galli (ECHCG); experiment: Post-emergence herbicidal glasshouse test; details: post-emergence (sprayed after 8 days cultivation), evaluated after 13 days, 100=total damage to plant, 0=no damage to plant; for pest or weed control at 1000 g/ha: Echinochloa crus-galli, 312 h, read-out: POST Application ECHCG, damage to plant; for POST Application ECHCG, damage to plant: 1000 g/ha
Outline: as §2

[8] = system: Alopecurus myosuroides (ALOMY); experiment: Post-emergence herbicidal glasshouse test; details: post-emergence (sprayed after 8 days cultivation), evaluated after 13 days, 100=total damage to plant, 0=no damage to plant; for pest or weed control at 1000 g/ha: Alopecurus myosuroides, 312 h, read-out: POST Application ALOMY, damage to plant; for POST Application ALOMY, damage to plant: 1000 g/ha
Outline: as §1

Setaria faberi (SETFA) [9] = experiment: Post-emergence herbicidal glasshouse test; details: post-emergence (sprayed after 8 days cultivation), evaluated after 13 days, 100=total damage to plant, 0=no damage to plant; for pest or weed control at 1000 g/ha: Setaria faberi, 312 h, read-out: POST Application SETFA, damage to plant; for POST Application SETFA, damage to plant: 1000 g/ha
Outline: as §1

Solanum nigrum (SOLNI) [10] = experiment: Post-emergence herbicidal glasshouse test; details: post-emergence (sprayed after 8 days cultivation), evaluated after 13 days, 100=total damage to plant, 0=no damage to plant; for pest or weed control at 1000 g/ha: Solanum nigrum, 312 h, read-out: POST Application SOLNI, damage to plant; for POST Application SOLNI, damage to plant: 1000 g/ha
Outline: as §1

Row | SMILES | pest or weed control at 1000 g/ha [1] [%] | pest or weed control at 1000 g/ha [2] [%] | pest or weed control at 1000 g/ha [3] [%] | pest or weed control at 1000 g/ha (Setaria faberi (SETFA) [4]) [%] | pest or weed control at 1000 g/ha (Solanum nigrum (SOLNI) [5]) [%] | pest or weed control at 1000 g/ha [6] [%] | pest or weed control at 1000 g/ha [7] [%] | pest or weed control at 1000 g/ha [8] [%] | pest or weed control at 1000 g/ha (Setaria faberi (SETFA) [9]) [%] | pest or weed control at 1000 g/ha (Solanum nigrum (SOLNI) [10]) [%] | PRE Application AMARE, damage to plant [1] | PRE Application ECHCG, damage to plant [2] | PRE Application ALOMY, damage to plant [3] | PRE Application SETFA, damage to plant (Setaria faberi (SETFA) [4]) | PRE Application SOLNI, damage to plant (Solanum nigrum (SOLNI) [5]) | POST Application AMARE, damage to plant [6] | POST Application ECHCG, damage to plant [7] | POST Application ALOMY, damage to plant [8] | POST Application SETFA, damage to plant (Setaria faberi (SETFA) [9]) | POST Application SOLNI, damage to plant (Solanum nigrum (SOLNI) [10])
1 | CC(C)c1nc2nc(C(F)(F)F)c(C(=O)C3C(=O)CCCC3=O)cc2cc1F [Compound 1.75, 2-[6-fluoro-7-methylethyl-2-trifluoromethyl-[1,8]-naphthyridine-3-carbony]-cyclohexane-1,3-dione] | 80 | 90 | 80 | 90 | 90 | 80 | 90 | 80 | 90 | 90 | – | – | – | – | – | – | – | – | – | –
2 | CC(C)Cc1nc2nc(C(F)(F)F)c(C(=O)C3C(=O)CCCC3=O)cc2cc1F [Compound 1.70, 2-[6-fluoro-7-(2-methylpropyl)-2-trifluoromethyl-[1,8]-naphthyridine-3-carbony]-cyclohexane-1,3-dione] | – | – | – | – | – | – | – | – | – | – | 40 | 100 | 90 | 100 | 100 | 90 | 90 | 90 | 90 | 80
3 | CCOc1ccc2cc(C(=O)C3=C(OC(=O)C(C)C)CCCC3=O)c(C(F)(F)F)nc2n1 [Compound 4.19, isobutyric acid 2-(7-ethoxy-2-trifluoromethyl-[1,8]-naphthyridine-3-carbonyl)-3-oxo-cyclohex-1-enyl ester] | 100 | 100 | 70 | 100 | 100 | 70 | 80 | 80 | 90 | 90 | – | – | – | – | – | – | – | – | – | –
4 | O=C(c1cc2ccc(CCF)nc2nc1C(F)(F)F)C1C(=O)C2CCC(C2)C1=O (stereo not shown) [Compound 3.10] | – | – | – | – | – | – | – | – | – | – | 70 | 100 | 70 | 90 | 100 | 100 | 90 | 80 | 90 | 90
5 | CC(C)(C)C(=O)Cn1c(=O)ccc2cc(C(=O)C3C(=O)CCCC3=O)c(C(F)(F)F)nc21 [Compound 2.7, 2-{8-(3,3-dimethyl-2-oxo-butyl)-7-oxo-7,8-dihydro-2-trifluoromethyl-[1,8]-naphthyridine-3-carbony}-cyclohexane-1,3-dione] | – | – | – | – | – | – | – | – | – | – | 60 | 80 | 30 | 40 | 100 | 70 | 70 | 40 | 70 | 100
6 | COCc1nc2ncc(F)cc2cc1C(=O)C1C(=O)CCCC1=O [Compound 1.74, 2-[6-fluoro-2-methoxymethyl-[1,8]-naphthyridine-3-carbony]-cyclohexane-1,3-dione] | – | – | – | – | – | – | – | – | – | – | 100 | 100 | 70 | 100 | 100 | 90 | 80 | 40 | 80 | 80
7 | CCc1nc2nc(C(F)(F)F)c(C(=O)C3C(=O)CCCC3=O)cc2cc1F [Compound 1.67, 2-[7-ethyl-6-fluoro-2-trifluoromethyl-[1,8]-naphthyridine-3-carbony]-cyclohexane-1,3-dione] | – | – | – | – | – | – | – | – | – | – | 100 | 100 | 90 | 100 | 100 | 80 | 90 | 90 | 90 | 100
8 | Cc1ccc2cc(C(=O)C3C(=O)CCCC3=O)c(C(F)(F)Cl)nc2n1 [Compound 1.89, 2-[2-chlorodifluoromethyl-7-methyl [1,8]-naphthyridine-3-carbony]-cyclohexane-1,3-dione] | – | – | – | – | – | – | – | – | – | – | 100 | 100 | 40 | 100 | 100 | 100 | 90 | 70 | 80 | 90
9 | CCc1nc2nc(C(F)(F)F)ccc2cc1C(=O)C1C(=O)CCCC1=O [Compound 1.107, 2-[2-ethyl-7-trifluoromethyl-[1,8]-naphthyridine-3-carbony]-cyclohexane-1,3-dione] | 100 | 100 | 30 | 100 | 90 | 100 | 80 | 50 | 90 | 100 | – | – | – | – | – | – | – | – | – | –
10 | C#CCNc1nc2nc(C(F)(F)F)c(C(=O)C3C(=O)CCCC3=O)cc2cc1F [Compound 1.103] | – | – | – | – | – | – | – | – | – | – | 80 | 100 | 40 | 100 | 100 | 80 | 80 | 70 | 90 | 90
